In US20130143929A1, “FUNGICIDAL IMIDAZOLES” (EI DU PONT DE NEMOURS AND COMPANY, priority 2010, published 2013):
Marks after values point to notes of the source that are not given here.

What was measured:
Type in all cases: in vivo
[1] = test system: Puccinia recondite f. sp. tritici (the causal agent of wheat leaf rust); assay: Test A: wheat leaf rust, preventive spray on wheat seedlings, visual disease rating; conditions: wheat leaf rust, preventive spray on wheat seedlings
Procedure, shortened: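 This was a preventive test: Puccinia recondite f. sp. tritici inoculum was applied one day after compound spray to run-off. Test suspensions were made in 50/50 acetone/water with 250 ppm surfactant, at 200 ppm (800 g/ha equivalent) or 40 ppm. Visual ratings of % disease control relative to controls were made after 24 h of saturated humidity and 7 growth-chamber days, all at 20° C.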

[2] = test system: Septoria tritici (the causal agent of wheat leaf blotch); assay: Test B: wheat leaf blotch, preventive spray on wheat seedlings, visual disease rating; conditions: wheat leaf blotch, preventive spray on wheat seedlings
Procedure, shortened: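 Preventive test: Septoria tritici spores applied one day after run-off spraying of seedlings (200 ppm equals 800 g/ha; some tests 40 ppm). After 48 h at 24 °C saturated atmosphere and 19 days at 20 °C, disease scored visually as % control relative to untreated plants.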

[3] = test system: Botrytis cinerea (the causal agent of tomato Botrytis); assay: Test C: tomato Botrytis, preventive spray on tomato seedlings, visual disease rating; conditions: tomato Botrytis, preventive spray on tomato seedlings
Procedure, shortened: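 Preventive test: B. cinerea spore inoculation one day after tomato seedlings were sprayed to run-off with compound suspended in 50/50 acetone–water plus 250 ppm surfactant. Plants held 48 h at 20° C in saturated air, then 3 days at 24° C; visual ratings scored 100 (full control) to 0 versus controls; some entries used 40 ppm.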

[4] = test system: Blumeria graminis f. sp. tritici (also known as Erysiphe graminis f. sp. tritici, the causal agent of wheat powdery mildew); assay: Test D: wheat powdery mildew, preventive spray on wheat seedlings, visual disease rating; conditions: wheat powdery mildew, preventive spray on wheat seedlings
Procedure, shortened: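 Preventive test: seedlings sprayed to run-off and inoculated with powdery mildew spores one day later. Suspensions were made in 50/50 acetone/water with 250 ppm Trem 014 surfactant (200 ppm equals 800 g/ha). Visual ratings after 8 days at 20 °C give percent disease control versus controls.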

[5] = asterisk: 40 ppm test suspension
[6] = no asterisk (standard test suspension concentration, not 40 ppm)

SMILES | Test A rating (100 = 100% disease control, 0 = no disease control relative to the controls) [1, 5] | Test B rating (100 = 100% disease control, 0 = no disease control relative to the controls) [2, 5] | Test C rating (100 = 100% disease control, 0 = no disease control relative to the controls) [3, 5] | Test D rating (100 = 100% disease control, 0 = no disease control relative to the controls) [4, 5] | Test A rating (100 = 100% disease control, 0 = no disease control relative to the controls) [1, 6] [%] | Test B rating (100 = 100% disease control, 0 = no disease control relative to the controls) [2, 6] [%] | Test C rating (100 = 100% disease control, 0 = no disease control relative to the controls) [3, 6] [%] | Test D rating (100 = 100% disease control, 0 = no disease control relative to the controls) [4, 6] [%]
Cc1nc(Br)c(C(O)c2ccc(F)cc2Cl)n1-c1c(F)cc(F)cc1F (stereo not drawn) [Compound 168, 4-bromo-α-(2-chloro-4-fluorophenyl)-2-methyl-1-(2,4,6-trifluorophenyl)-1H-imidazole-5-methanol] | 100* % | 100* % | 99* % | 56* % | – | – | – | –
COc1ccc(C(O)c2c(Br)ncn2-c2c(F)cccc2F)c(Cl)c1 (stereo not drawn) [Compound 274, 4-bromo-1-(2,6-difluorophenyl)-α-(2-chloro-4-methoxyphenyl)-1H-imidazole-5-methanol] | – | – | – | – | 100 | 97 | 0 | 64
COc1ccc(C(O)c2c(Br)nc(Cl)n2-c2c(F)cccc2F)c(Cl)c1 (stereo not drawn) [Compound 287, 4-bromo-2-chloro-α-(2-chloro-4-methoxyphenyl)-1-(2,6-difluorophenyl)-1H-imidazole-5-methanol] | 100* % | 100* % | 100* % | 97* % | – | – | – | –
OC(c1ccc(F)cc1Cl)c1c(Cl)nc(Cl)n1-c1c(F)cc(F)cc1Cl (stereo not drawn) [compound 42] | – | – | – | – | 100 | 100 | 100 | 100
Cc1cc(F)ccc1C(O)c1c(Cl)nc(Cl)n1-c1c(F)cccc1F (stereo not drawn) [compound 43] | – | – | – | – | 100 | 100 | 100 | 100
OC(c1ccc(Cl)cc1)c1c(Cl)nc(Cl)n1-c1c(F)cc(F)cc1Br (stereo not drawn) [compound 44] | – | – | – | – | 99 | 100 | 99 | 88
Cc1nc(Cl)n(-c2ccc(F)cc2Cl)c1C(O)c1c(F)cccc1F (stereo not drawn) [compound 46] | – | – | – | – | 100 | 100 | 100 | 100
OC(c1c(F)cc(F)cc1F)c1c(Cl)nc(Cl)n1-c1ccc(F)cc1Cl (stereo not drawn) [compound 49] | – | – | – | – | 100 | 100 | 100 | 100
Cc1ccc(C(O)c2c(Br)nc(C)n2-c2c(F)cccc2F)c(F)c1 (stereo not drawn) [compound 52] | 99* % | 100* % | 37* % | 35-* % | – | – | – | –
COc1ccc(C(O)c2c(Br)nc(C)n2-c2c(F)cccc2F)c(F)c1 (stereo not drawn) [compound 53] | 100* % | 100* % | 99* % | 43* % | – | – | – | –
Cc1nc(Cl)c(C(O)c2ccc(Cl)cc2F)n1-c1c(F)cccc1F (stereo not drawn) [compound 54] | 98* % | 100* % | 80* % | 69* % | – | – | – | –
Cc1ccc(C(O)c2c(Cl)nc(C)n2-c2c(F)cccc2F)c(F)c1 (stereo not drawn) [compound 55] | 100* % | 100* % | 98* % | 98* % | – | – | – | –
COc1ccc(C(O)c2c(Cl)nc(C)n2-c2c(F)cccc2F)c(F)c1 (stereo not drawn) [compound 56] | 100* % | 100* % | 100* % | 13* % | – | – | – | –
Cc1ncc(C(O)c2ccc(Cl)cc2)n1-c1ccc(F)cc1Cl (stereo not drawn) [compound 57] | – | – | – | – | 96 | 100 | 34 | 0
Cc1nc(Cl)c(C(O)c2ccc(F)cc2F)n1-c1ccc(F)cc1Cl (stereo not drawn) [compound 58] | – | – | – | – | 100 | 100 | 100 | 72
Cc1nc(Cl)c(C(O)c2ccc(Cl)cc2)n1-c1ccc(F)cc1Cl (stereo not drawn) [compound 59] | – | – | – | – | 100 | 100 | 99 | 73
Cc1nc(Br)c(C(O)c2ccc(Cl)cc2)n1-c1ccc(F)cc1Cl (stereo not drawn) [compound 60] | – | – | – | – | 100 | 100 | 99 | 73
OC(c1ccc(F)cc1F)c1c(Br)ncn1-c1ccc(F)cc1Cl (stereo not drawn) [compound 63] | – | – | – | – | 96 | 59 | 98 | 0
Cc1nc(Cl)c(C(O)c2ccc(F)cc2Cl)n1-c1c(F)cc(F)cc1Cl (stereo not drawn) [compound 64] | 100* % | 100* % | 99* % | 93* % | – | – | – | –
OC(c1ccc(F)cc1F)c1c(Br)nc(Br)n1-c1ccc(F)cc1Cl (stereo not drawn) [compound 65] | 100* % | 100* % | 100* % | 64* % | – | – | – | –
Cc1nc(Cl)c(C(O)c2ccc(Cl)cc2Cl)n1-c1c(F)cc(F)cc1Cl (stereo not drawn) [compound 66] | 100* % | 100* % | 99* % | 69* % | – | – | – | –
Cc1nc(Cl)c(C(O)c2ccc(F)cc2Br)n1-c1c(F)cccc1Br (stereo not drawn) [compound 68] | – | – | – | – | 100 | 100 | 100 | 96
Cc1nc(Cl)c(C(O)c2ccc(F)cc2Br)n1-c1c(F)cc(F)cc1Br (stereo not drawn) [compound 70] | 100* % | 100* % | 99* % | 43* % | – | – | – | –
OC(c1ccc(F)cc1Br)c1c(Cl)nc(C2CC2)n1-c1c(F)cccc1Br (stereo not drawn) [compound 72] | – | – | – | – | 79 | 100 | 0 | 43
